Paper PMC12185792, “Guanylate cyclase activity in moss: revisiting the role of ERECTA-like receptors” (Physiology and Molecular Biology of Plants, 2025)

B1: PpERL1 (Physcomitrium patens ERECTA-like receptor 1) (Physcomitrium patens) (protein)
chain: MSKAPQGPPKLVTFHMGMAPQSFEEMMCLTENLSEKYVAGRGGSSTVYKCTLKNGHSIAIKKLFNYYPQNVREFETELKTLGNIKHRNVVSLRGYSMSSAGNFLFYDFMEYGSLYDHLHGHAKRSKKMDWNTRLKIALGSAQGLAYLHQDCTPQVIHRDVKSCNILLNANMDAHLCDFGLAKNIQPTRTHTSTFVLGTIGYIDPEYAQTSRLNEKSDVYSFGIVLLELLMGKKAVDDEVNLLDWVRSKIEQKNLLEFVDPYVRSTCPSMDHLEKALKLALLCAKQTPSQRPTMYDVAQVLSSLLPVVSPRKPPSYPSPGSKHRRYVDTYSAKPAEGMIASSSTSGGDLLDQFENVINSRNM
notes: intracellular fragment 658-1018 (kinase domain with embedded GC motif 877-893) of 1018 residues; N-terminal GST tag kept (pGEX-6P-2), about 66 kDa; E. coli BL21(DE3)pLysS

What was measured:
[1] = biological target: T1, PpERL1 (Physcomitrium patens ERECTA-like receptor 1) (Physcomitrium patens, UniProt A0A2K1L2N0); assay: Kinase-Glo Plus luminescent kinase assay, histone type III; assay type: biochemical; settings: 10 μM ATP, 5 mM MgCl2, 1 mM DTT, Tris-HCl pH 7.5, 30 °C; inhibition of kinase domain, possibly via GC domain
T1 construct: gene LOC112274326; intracellular fragment 658-1018 (kinase domain with embedded GC motif 877-893) of 1018 residues; N-terminal GST tag kept (pGEX-6P-2), about 66 kDa; E. coli BL21(DE3)pLysS
T1 sequence (A0A2K1L2N0 658-1018): B1 chain

[2] = biological target: T2, PpERL1 (Physcomitrium patens ERECTA-like receptor 1) (Physcomitrium patens, UniProt A0A2K1L2N0, K890N); assay: as above; assay type: biochemical; settings: 10 μM ATP, 5 mM MgCl2, 1 mM DTT, Tris-HCl pH 7.5, 30 °C; inhibition of kinase domain, possibly via GC domain
T2 construct: gene LOC112274326; intracellular fragment 658-1018 (kinase domain with embedded GC motif 877-893) of 1018 residues; N-terminal GST tag kept (pGEX-6P-2), about 66 kDa; E. coli BL21(DE3)pLysS
T2 sequence (A0A2K1L2N0 entry or part of it K890N): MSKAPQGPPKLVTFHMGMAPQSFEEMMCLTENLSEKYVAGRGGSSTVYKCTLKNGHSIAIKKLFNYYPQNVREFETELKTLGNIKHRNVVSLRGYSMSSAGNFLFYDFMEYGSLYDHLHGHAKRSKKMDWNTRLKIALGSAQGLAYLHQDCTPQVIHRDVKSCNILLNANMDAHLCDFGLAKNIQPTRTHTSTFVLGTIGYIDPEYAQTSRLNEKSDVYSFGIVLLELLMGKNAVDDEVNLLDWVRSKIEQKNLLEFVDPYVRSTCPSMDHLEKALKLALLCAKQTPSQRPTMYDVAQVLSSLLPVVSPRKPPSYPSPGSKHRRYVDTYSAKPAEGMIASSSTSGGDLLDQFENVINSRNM

[3] = substrate: Nc1nc2c(ncn2[C@@H]2O[C@H](COP(=O)(O)OP(=O)(O)OP(=O)(O)O)[C@@H](O)[C@H]2O)c(=O)[nH]1; assay: guanylate cyclase assay, cGMP by LC-MS/MS; assay type: biochemical, Physcomitrium patens; settings: GTP 0.1-3 mM, 5 mM MgCl2, 2.5 mM MnCl2, 1 mM DTT, Tris-HCl pH 7.5, 30 °C, no CaCl2

| Molecule | relative kinase activity at 1 mM GTP [1] | relative kinase activity at 1 mM GTP [2] | Km [3] [µM] |
| --- | --- | --- | --- |
| Nc1nc2c(ncn2[C@@H]2O[C@H](COP(=O)(O)OP(=O)(O)OP(=O)(O)O)[C@@H](O)[C@H]2O)c(=O)[nH]1 [GTP] | adding GTP to the reaction mixture led to a significant decrease in kinase activity | the presence of GTP resulted in a slight decrease in kinase activity |  |
| B1 |  |  | 609.8 |
